Reference: US5719278A, “Tricyclic benzazepine vasopressin antagonists” (American Cyanamid Company, priority 1996, dated 1998)

Columns and labels:
oxytocin receptors = target: T1, oxytocin receptors (Rattus norvegicus, UniProt P70536); test: Oxytocin Receptor Binding; set-up: species or system Sprague-Dawley rat; settings: for IC50: 1.0 nM [^3 H]OT, 60 min., 22° C.
T1 construct: The uteri are dissected out, cleaned of fat and connective tissues; from tissue; host or cells: uterus of DES-treated female Sprague-Dawley rats
T1 sequence (P70536 1-388): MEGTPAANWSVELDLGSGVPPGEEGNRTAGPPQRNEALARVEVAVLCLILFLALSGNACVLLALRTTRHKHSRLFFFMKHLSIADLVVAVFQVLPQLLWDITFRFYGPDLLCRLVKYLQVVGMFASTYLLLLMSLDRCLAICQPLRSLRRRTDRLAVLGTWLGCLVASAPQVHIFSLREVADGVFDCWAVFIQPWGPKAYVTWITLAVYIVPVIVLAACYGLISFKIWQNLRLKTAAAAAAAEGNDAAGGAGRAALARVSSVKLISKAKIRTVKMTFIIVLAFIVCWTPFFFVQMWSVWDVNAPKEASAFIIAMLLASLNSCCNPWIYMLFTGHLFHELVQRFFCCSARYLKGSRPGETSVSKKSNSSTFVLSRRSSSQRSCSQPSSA
Procedure: Oxytocin Receptor Binding
Female Sprague-Dawley rats weighing approximately 200-250 g are injected intramuscularly (i.m.) with 0.3 mg/kg of body weight of diethylstilbestrol (DES). The rats are sacrificed 18 hours later under pentobarbital anesthesia. The uteri are dissected out, cleaned of fat and connective tissues and rinsed in 50 ml of normal saline. The tissue pooled from six rats is homogenized in 50 ml of […] TriS.HCl, containing 0.5 mM dithiothreitol and 1.0 mM EDTA, adjusted to pH 7.4, using a polytron at setting 6 with three passes of 10 sec each. The homogenate is passed through two (2) layers of cheesecloth and the filtrate contrifuged at 1000×g for 10 min. The clear supernatant is removed and recentrifuged at 165,000×g for 30 min. The resulting pellet containing the oxytocin receptors is resuspended in 50.0 mM Tris.HCl containing 5.0 mM MgCl2 at pH 7.4, to give a protein concentration of 2.5 mg/ml of tissue suspension. This preparation is used in subsequent binding assays with [^3 H]Oxytocin.
Binding of 3,5-[^3 H]Oxytocin ([^3 H]OT) to its receptors is done in microtiter plates using [^3 H]OT, at various concentrations, in an assay buffer of 50.0 mM Tris.HCl, pH 7.4 and containing 5.0 mM MgCl2, and a mixture of protease inhibitors: BSA, 0.1 mg; aprotinin, 1.0 mg; 1,10-phenanthroline, 2.0 mg; […], 10.0 mg; and PMSF, 0.3 mg per 100 ml of buffer solution. Non-specific binding is determined in the presence of 1.0 uM unlabeled OT. The binding reaction is terminated after 60 min., at 22° C., by rapid filtration through glass fiber filters using a Brandel® cell harvester (Biomedical Research and Development Laboratories, Inc., Gaithersburg, Md.). Competition experiments are conducted at equilibrium using 1.0 nM [^3 H]OT and varying the concentration of the displacing agents. The concentrations of agent displacing 50% of [^3 H]OT at its sites (IC50) are calculated by a computer assisted LUNDON-2 program (LUNDON SOFTWARE INC., Ohio, U.S.A.).

[1] = target: T2, V1 Receptor Subtype in Human Platelet (Homo sapiens, UniProt P37288); test: Binding to Vasopressin V1 Receptor Subtype in Human Platelet Membranes; settings: *Binding to V1 Receptor Subtype in Human Platelet
T2 construct: from tissue; host or cells: human platelets (platelet rich plasma from Hudson Valley Blood Services)
T2 sequence (P37288 whole entry): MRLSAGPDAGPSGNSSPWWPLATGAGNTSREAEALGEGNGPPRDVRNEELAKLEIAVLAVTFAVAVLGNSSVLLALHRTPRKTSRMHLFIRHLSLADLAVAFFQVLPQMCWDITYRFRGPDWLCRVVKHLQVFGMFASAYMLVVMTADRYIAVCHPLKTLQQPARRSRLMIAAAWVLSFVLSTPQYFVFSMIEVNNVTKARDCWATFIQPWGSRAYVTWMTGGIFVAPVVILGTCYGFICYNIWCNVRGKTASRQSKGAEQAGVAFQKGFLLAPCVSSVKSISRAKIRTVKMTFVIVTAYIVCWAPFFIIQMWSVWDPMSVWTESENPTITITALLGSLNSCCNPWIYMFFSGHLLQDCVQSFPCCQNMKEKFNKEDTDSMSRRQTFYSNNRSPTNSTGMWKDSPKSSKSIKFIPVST
Procedure: Radioligand Binding Experiments with Human Platelet Membranes
Platelet Source: Hudson Valley Blood Services, Westchester Medical Center, Valhalla, N.Y.
Frozen platelet rich plasma (PRP), received from the Hudson Valley Blood Services are thawed to room temperature. The tubes containing the PRP are centrifuged at 16,000×g for 10 min. at 4° C. and the supernatant fluid discarded. The platelets resuspended in an equal volume of 50.0 mM Tris.HCl, pH 7.5 containing 120 mM NaCl and 20.0 mM EDTA. The suspension is recentrifuged at 16,000×g for 10 min. This washing step is repeated one more time. The wash is discarded and the lysed pellets homogenized in low ionic strength buffer of Tris.HCl, 5.0 mM, pH 7.5 containing 5.0 mM EDTA. The homogenate is centrifuged at 39,000×g for 10 min. The resulting pellet is resuspended in Tris.HCl buffer, 70.0 mM, pH 7.5 and recentrifuged at 39,000×g for 10 min. The final pellet is resuspended in 50.0 mM Tris.HCl buffer pH 7.4 containing 120 mM NaCl and 5.0 mM HCl to give 1.0-2.0 mg protein per ml of suspension.
Binding to Vasopressin V1 Receptor Subtype in Human Platelet Membranes:
In wells of a 96 well format microtiter plate, add 100 μl of 50.0 mM Tris.HCl buffer containing 0.2% BSA and a mixture of protease inhibitors (aprotinin, leupeptin etc.). Then add 20 μl of [^3 H]Ligand: (Manning or Arg^8 Vasopressin), to give final concentrations ranging from 0.01 to 10.0 nM. Initiate the binding by adding 80.0 μl of platelet suspension (approx. 100 μg protein). Mix all reagents by pipetting the mixture up and down a few times. Non-specific binding is measured in the presence of 1.0 μM of unlabeled ligand (Manning or Arg^8 Vasopressin). Let the mixture stand undisturbed at room temperature for ninety (90) min. Upon this time, rapidly filter off the incubate under vacuum suction over GF/B filters, using a Brandel® Harvester. Determine the radioactivity caught on the filter disks by the addition of liquid scintillant and counting in a liquid scintillator

| IC50 (oxytocin receptors) [nM] | inhibition at 10 µM (oxytocin receptors) [%] | IC50 [1] [µM] | Compound |
| --- | --- | --- | --- |
| 2500 | 93 |  | O=C(Nc1ccc(C(=O)N2CCc3cn[nH]c3-c3sccc32)cc1)c1ccc(F)cc1Cl [Example 1, N-[4-[(4,5-Dihydropyrazolo[3,4-d]thieno[3,2-b]azepin-6(1H)-yl)carbonyl]phenyl]-2-chloro-4-fluorobenzamide] |
| 2500 | 57 | 0.101 | O=C(Nc1ccc(C(=O)N2CCc3cn[nH]c3-c3ncccc32)cc1)c1ccccc1-c1ccccc1 [Example 365, N-[4-[(4,5-Dihydropyrazolo[3,4-d]pyrido[3,2-b]azepin-6(1H)-yl)carbonyl]phenyl][1,1'-biphenyl]-2-carboxamide] |
| 2100 | 63 | 0.31 | Cc1ccc(F)cc1C(=O)Nc1ccc(C(=O)N2CCc3c[nH]nc3-c3ncccc32)cc1 [Example 367, N-[4-[4(4,5-Dihydropyrazolo[3,4-d]pyrido[3,2-b]azepin-6(1H)-yl)carbonyl]phenyl]-5-fluoro-2-methylbenzamide] |
